Experimental data from US20220370553A1, “PREBIOTIC-INDUCED ANTI-TUMOR IMMUNITY” (Sanford Burnham Prebys Medical Discovery Institute, priority 2019, published 2022).

Assays:
Yumm1.5 tumors = experiment: Flow cytometry of tumor-infiltrating immune cells in Yumm1.5 tumors; format: in vivo, C57BL/6 mice; details: 20 days following tumor inoculation
From the text: FIG. 2B, Quantification of tumor-infiltrating effector (CD44hi) CD4+, CD8+ and CD45+ T cells from mice treated as in FIG. 2A (n=10). FIG. 2C, Quantification of tumor-infiltrating, IFN-g-producing CD4+ T cells from mice treated as in FIG. 2A (n=10). FIG. 2D, Quantification of tumor-infiltrating total DCs and subsets in mice treated as in FIG. 2A (n=10). FIG. 2E, MFI of MHC class I and MHC class II on DCs from the tumors of mice treated as in FIG. 2A (n=10). […] Graphs show the mean s.e.m. *P<0.05, **P<0.005, ***P<0.001,****P<0.0001 by two-way ANOVA with Tukey's correction (A) and by one-way ANOVA with Tukey's correction (B-E).
(§1) Tumor digestion. Tumors were excised, minced, and digested with 1 mg/ml collagenase D (Roche) and 100 μg/ml DNase I (Sigma) at 37° C. for 1 h. Digests were then passed through a 70-μm cell strainer to generate a single-cell suspension. The cells were washed twice with PBS containing 2 mM EDTA, and then stained for flow cytometry.
(§2) Flow cytometry. Tumor-derived single-cell suspensions were washed twice with FACS staining buffer, fixed for 15 min with 1% formaldehyde in PBS, washed twice, and resuspended in FACS staining buffer. For intracellular cytokine staining, cells were resuspended in complete RPMI-1640 (containing 10 mM HEPES, 1% non-essential amino acids and L-glutamine, 1 mM sodium pyruvate, 10% heat-inactivated fetal bovine serum (FBS), and antibiotics) supplemented with 50 U/mL IL-2 (NCI), […] brefeldin A (BFA, Sigma), and incubated with phorbol myristate acetate (10 ng/ml) and ionomycin (0.5 μg/ml) at 37° C. The cells were then fixed and permeabilized using a Cytofix/Cytoperm Kit (BD Biosciences) before staining. Antibodies to the following proteins were used: CD45.2 (104), CD8a (53-6.7), CD4 (GK1.5), CD44 (IM7), TNF-α (MP6-XT22), IFN-γ (XMG1.2), CD11c (N418), CD11b (M1/70), MHC class II (M5/114.15.2), PDCA (129c1), and B220 (RA3-6B2) from BioLegend, and antibodies to IL-2 (JES6-5H4) and MHC class I (AF6-88.5.5.3) from eBioscience. All data were collected on an LSRFortessa (BD Biosciences) and analyzed using FlowJo Software (Tree Star).

[1] = tested on: serum cytokines and chemokines; experiment: Serum cytokine and chemokine detection (LEGENDplex); format: in vivo, mice
From the text: Graphs show the mean±s.e.m. *P<0.05, ****P<0.0001 by two-tailed t-test or Mann-Whitney U test.
Serum cytokine and chemokine detection. Cytokines and chemokines in the sera of naïve or tumor-bearing mice treated with or without mucin were quantified using the LEGENDplex™ mouse inflammation panel and mouse proinflammatory chemokine panel (BioLegend), respectively. All data were collected on an LSRFortessa (BD Biosciences) and analyzed using LEGENDplex™ software (BioLegend).
Levels of circulating cytokines and chemokines were quantified in mucin-treated mice both before and after tumor inoculation.

[2] = tested on: N-Ras mutant melanoma tumor cells (MaNRAS1); experiment: Growth of N-Ras mutant melanoma tumors with prebiotics with or without MEKi; format: in vivo, C57BL/6 mice; details: in the absence of MEKi; mucin 3% in water or inulin 15% in chow
Method: FIG. 7A C57BL/6 mice were injected (s.c.) with NRAS^Q61K mouse melanoma cells (1×10^6) (n=10). The mice were administered with either a control diet alone, or one supplemented with mucin (3%) in drinking water or inulin (15%) in chow starting 14 days prior to tumor inoculation. When tumors reached a volume of 10-20 mm^2, mice were treated with MEKi (PD325901) administered by gavage (10 mg/kg, daily), alone or in combination with inulin or mucin, as indicated. Tumor volume was assessed every 4 days. […] Data are representative of two independent experiments. Graphs show the mean±s.e.m. *P<0.05, **P<0.005, ***P<0.001, ****P<0.0001 by two-way ANOVA with Tukey's correction (A) or one-way ANOVA with Tukey's correction (B-D).
Animals and tumor models. […] Male 6-8-week-old mice were used for all experiments. […] All mice were fed an autoclaved chow diet ad libitum (LabDiet 5K67, Purina Foods). […] Mouse selection for experiments was not formally randomized or blinded. For tumor growth experiments, mice were injected subcutaneously (s.c.) with 1×10^6 tumor cells. Tumor size was measured twice a week for calculation of tumor volume. Tumors were weighed at the time of excision.
Mucin and inulin treatment. For mucin treatment, C57BL/6 mice were subjected to control or water supplemented with 3% mucin (Lee Biosolutions) prior to (14 days) and during tumor inoculation. Water was changed every other day. For inulin treatment, mice were received a diet (TD. 94048, AIN-93M, Purified Diet, ENVIGO) enriched with long-chain inulin by substituting all of sucrose and 5% of corn starch in the control diet or a modified diet (TD. 160256, Modified AIN-93M, Diet w 15% inulin, ENVIGO) prior to (14 days) and during tumor inoculation. Diets were changed 2 times a week.
Experiments were conducted to determine whether prebiotics impacted the effectiveness of MEK inhibitor (MEKi) treatment on tumor growth control and treatment resistance.

[3] = tested on: MC-38 mouse colorectal cancer cells; experiment: Growth of MC-38 colorectal cancer tumors in prebiotic-fed mice; format: in vivo, C57BL/6 mice; details: 3% mucin in drinking water or 15% inulin diet from two weeks prior to inoculation
From the text: (§3) MC-38 mouse colorectal cancer cells (1×10^6) were inoculated, and diets were continued after inoculation.

[4] = tested on: MC-38 mouse colorectal cancer cells; experiment: Flow cytometry of tumor-infiltrating immune cells in MC-38 tumors; format: in vivo, C57BL/6 mice
Method: as §1, §2, §3

SW1 tumor cells = experiment: SW1 tumor growth in germ free mice colonized with minimal microbiota (ASF); format: in vivo, C3H/HeN mice; details: two weeks of mucin, 24 days
From the text: Tumor size was monitored over the next 24 days (n=15).
Animals and tumor models. All experimental animal procedures were approved by the Institutional Animal Care and Use Committee of Sanford Burnham Prebys Medical Discovery Institute (SBP) and complied with all relevant ethical regulations for animal testing and research. C57BL/6 mice were obtained from Sanford Burnham Prebys Medical Discovery Institute. OT-I mice were bred at SBP to CD45.1 mice (B6.SJLB6.SJL-Ptprc^a Pepc^b/BoyJ) that were obtained from Jackson Laboratories. C3H/HeOuJ mice were purchased from Jackson laboratories. Male 6-8-week-old mice were used for all experiments. […] Briefly, fresh feces were collected and analyzed by bacterial 16S rRNA gene-specific PCR (30 cycles, universal bacteria primers 8F and 1391R) in combination with aerobic and anaerobic culture of feces in Brain Heart Infusion, Wilkins-Chalgren and Yeast Mold broths, and on Tryptic Soy Agar plates (all media from Difco™ Becton Dickinson) at 37° C. for 7 days. […] Briefly, genomic DNA was extracted from fecal samples and ASF bacteria were quantified by qPCR with species-specific primers. […] Tumor size was measured twice a week for calculation of tumor volume. […]
In order to test the requirement for gut microbiota in prebiotic-induced tumor control, experiments were conducted using mice with a defined, minimal microbiota. […] Tumor size was monitored over the next 24 days.

Substance: mucin
- MHC class I and MHC class II on tumor-resident DCs (Yumm1.5 tumors): higher levels
- dendritic cell subsets including pDCs and CD8a+ conventional DCs in tumors (Yumm1.5 tumors): increased
- effector (CD44hi) CD4+ and CD8+ T cells, and CD45+ cells in tumors (Yumm1.5 tumors; compared to control mice): enrichment
- serum levels of IL-6, IL-1a, IL-10, IL-17A and IL-23 ([1]; following tumor inoculation (10 days), compared with control): reduced levels
- serum levels of IL-1a and CXCL13 ([1]; mucin feeding for two weeks, prior to tumor inoculation): Higher levels
- serum levels of chemokines CXCL1 and CXCL13 ([1]; tumor-inoculated mice (10 days), compared with control): Lower serum levels
- control of N-Ras mutant tumors [2]: not
- growth of colon cancer MC-38 tumors [3]: not
- CD4+ or CD8+ T cells, CD45+ cells, cytokine production, DCs and DC subsets in tumors [4]: No differences
- SW1 tumor growth (SW1 tumor cells): failed to attenuate tumor growth
